In patent publication US6582351B1, “Imidazopyridinone derivatives and their use as phosphodiesterase inhibitors” (Fujisawa Pharmaceutical Co., Ltd., priority 1999, dated 2003):

Structure (SMILES)	melting point [°C]
COc1ccc(Cn2c(=O)n(C(C)(C)CO)c3ncc(C(F)(F)F)cc32)cc1Cl [Example 3, 1-(3-chloro-4-methoxybenzyl)-3-(1,1-dimethyl-2-hydroxyethyl)-6-trifluoromethyl-2,3-dihydro-1H-imidazo[4,5-b]pyridin-2-one]	195 to 197
COc1ccc(Cn2c(=O)n([C@H]3CC[C@H](OC(C)=O)CC3)c3ncc(C(F)(F)F)cc32)cc1OC [Example 2(12), 3-(trans-4-Acetoxycyclohexyl)-1-(3,4-dimethoxybenzyl)-6-trifluoromethyl-2,3-dihydro-1H-imidazo[4,5-b]pyridin-2-one]	130 to 133
COc1cc(Cn2c(=O)n(C3CCCC3)c3ccc([N+](=O)[O-])cc32)ccc1Cl [Example 2(2), 3-(4-Chloro-3-methoxybenzyl)-1-cyclopentyl-5-nitro-2,3-dihydro-1H-benzimidazol-2-one]	170 to 171.5
COc1ccc(Cn2c(=O)n([C@H]3CC[C@H](O)CC3)c3ccc(C)cc32)cc1OC [Example 19(4), 3-(3,4-Dimethoxybenzyl)-1-(trans-4-hydroxycyclohexyl)-5-methyl-2,3-dihydro-1H-benzimidazol-2-one]	174 to 175
COc1ccc(Cn2c(=O)n([C@H]3CC[C@H](O)CC3)c3ccc([N+](=O)[O-])cc32)cc1OC [Example 2(3), 3-(3,4-Dimethoxybenzyl)-1-(trans-4-hydroxycyclohexyl)-5-nitro-2,3-dihydro-1H-benzimidazol-2-one]	175 to 176
CCOc1ccc(Cn2c(=O)n([C@H]3CC[C@H](O)CC3)c3ccc(C(F)(F)F)cc32)cc1Cl [Example 2(29), 3-(3-Chloro-4-ethoxybenzyl)-1-(trans-4-hydroxycyclohexyl)-5-trifluoromethyl-2,3-dihydro-1H-benzimidazol-2-one]	147.5 to 149
COc1ccc(Cn2c(=O)n(C(C)(C)C)c3ccc(C(F)(F)F)cc32)cc1Cl [Example 2(32), 1-(tert-Butyl)-3-(3-chloro-4-methoxybenzyl)-5-trifluoromethyl-2,3-dihydro-1H-benzimidazol-2-one]	130.5 to 131.5
COc1ccc(Cn2c(=O)n([C@H]3CC[C@H](N)CC3)c3ccc(C(F)(F)F)cc32)cc1Cl [Example 8(4), 1-(trans-4-Aminocyclohexyl)-3-(3-chloro-4-methoxybenzyl)-5-trifluoromethyl-2,3-dihydro-1H-benzimidazol-2-one]	167 to 168.5
COc1ccc(Cn2c(=O)n([C@H]3CC[C@H](OC(C)=O)CC3)c3ncc(C(F)(F)F)cc32)cc1Cl [Example 2(15), 3-(trans-4-Acetoxycyclohexyl)-1-(3-chloro-4-methoxybenzyl)-6-trifluoromethyl-2,3-dihydro-1H-imidazo[4,5-b]pyridin-2-one]	165 to 166
COc1ccc(Cn2c(=O)n([C@H]3CC[C@H](NC(N)=O)CC3)c3ccc(C(F)(F)F)cc32)cc1Cl [Example 14(2), 1-(trans-4-Ureidocyclohexyl)-3-(3-chloro-4-methoxybenzyl)-5-trifluoromethyl-2,3-dihydro-1H-benzimidazol-2-one]	164 to 165.5
COc1ccc(Cn2c(=O)n([C@H]3CC[C@H](O)CC3)c3ccc(C(=O)c4ccccc4)cc32)cc1Cl [Example 4(6), 5-Benzoyl-3-(3-chloro-4-methoxybenzyl)-1-(trans-4-hydroxycyclohexyl)-2,3-dihydro-1H-benzimidazol-2-one]	160.5 to 162
COc1ccc2c(c1)n(Cc1ccc(OC)c(OC)c1)c(=O)n2[C@H]1CC[C@H](O)CC1 [Example 2(11), 3-(3,4-Dimethoxybenzyl)-1-(trans-4-hydroxycyclohexyl)-5-methoxy-2,3-dihydro-1H-benzimidazol-2-one]	176 to 177
COc1ccc(Cn2c(=O)n([C@H]3CC[C@H](NC=O)CC3)c3ccc(C(F)(F)F)cc32)cc1OC [Example 2(8), 3-(3,4-Dimethoxybenzyl)-1-(trans-4-formamidocyclohexyl)-5-trifluoromethyl-2,3-dihydro-1H-benzimidazol-2-one]	158 to 160.5
COc1ccc(Cn2c(=O)n([C@H]3CC[C@H](O)CC3)c3ccc(C(F)(F)F)cc32)cc1Br [Example 2(31), 3-(3-Bromo-4-methoxybenzyl)-1-(trans-4-hydroxycyclohexyl)-5-trifluoromethyl-2,3-dihydro-1H-benzimidazol-2-one]	182 to 182.5
COc1ccc(Cn2c(=O)n([C@H]3CCN(C(=O)OC(C)(C)C)C3)c3ncc(C(F)(F)F)cc32)cc1Cl [Example 2(103), 3-((S)-1-tert-Butoxycarbonylpyrrolidin-3-yl)-1-(3-chloro-4-methoxybenzyl)-6-trifluoromethyl-2,3-dihydro-1H-imidazo[4,5-b]pyridin-2-one]	87 to 89
COc1ccc(Cn2c(=O)n(C(C)C)c3ccc(C(F)(F)F)cc32)cc1Cl [Example 2(35), 3-(3-Chloro-4-methoxybenzyl)-1-isopropyl-5-trifluoromethyl-2,3-dihydro-1H-benzimidazol-2-one]	153.5 to 155
COc1ccc(Cn2c(=O)n([C@H]3CC[C@H](O)CC3)c3ccc(C(F)(F)F)cc32)cc1OC [Example 1, 3-(3,4-dimethoxybenzyl)-1-(trans-4-hydroxycyclohexyl)-5-trifluoromethyl-2,3-dihydro-1H-benzimidazol-2-one]	108 to 110
COc1ccc(Cn2c(=O)n(-c3ccc4nc[nH]c4c3)c3ncc(C#N)cc32)cc1Cl [Example 2(104), 3-(Benzimidazol-5-yl)-1-(3-chloro-4-methoxybenzyl)-6-cyano-2,3-dihydro-1H-imidazo[4,5-b]pyridin-2-one]	163 to 166
COC(=O)c1ccc2c(c1)n(Cc1ccc(OC)c(OC)c1)c(=O)n2[C@H]1CC[C@H](O)CC1 [Example 2(10), 3-(3,4-Dimethoxybenzyl)-1-(trans-4-hydroxycyclohexyl)-5-methoxycarbonyl-2,3-dihydro-1H-benzimidazol-2-one]	148 to 149.5
COc1ccc(Cn2c(=O)n(C3CCCC3)c3ncc(C(F)(F)F)cc32)cc1OC [Example 2(13), 3-Cyclopentyl-1-(3,4-dimethoxybenzyl)-6-trifluoromethyl-2,3-dihydro-1H-imidazo[4,5-b]pyridin-2-one]	115 to 116
COc1ccc(Cn2c(=O)n(C3CCOCC3)c3ccc(C(F)(F)F)cc32)cc1Cl [Example 2(34), 3-(3-Chloro-4-methoxybenzyl)-1-(tetrahydro-4H-pyran-4-yl)-5-trifluoromethyl-2,3-dihydro-1H-benzimidazol-2-one]	175 to 176

The next lines start with the values.

melting point [°C]	Structure (SMILES)
209 to 210	COc1ccc(Cn2c(=O)n([C@H]3CC[C@H](O)CC3)c3ccc(C#N)cc32)cc1OC [Example 2(5), 5-Cyano-3-(3,4-dimethoxybenzyl)-1-(trans-4-hydroxycyclohexyl)-2,3-dihydro-1H-benzimidazol-2-one]
275 to 276	COc1ccc(Cn2c(=O)n([C@H]3CC[C@H](O)CC3)c3ccc(C(=O)O)cc32)cc1Cl [Example 19(5), 5-Carboxy-3-(3-chloro-4-methoxybenzyl)-1-(trans-4-hydroxycyclohexyl)-2,3-dihydro-1H-benzimidazol-2-one]
168 to 169	COc1ccc(Cn2c(=O)n([C@H]3CC[C@H](O)CC3)c3ncc(C#N)cc32)cc1C [Example 2(101), 6-Cyano-3-(trans-4-hydroxycyclohexyl)-1-(4-methoxy-3-methylbenzyl)-2,3-dihydro-1H-imidazo[4,5-b]pyridin-2-one]
146 to 148	COC(=O)c1cnc2c(c1)n(Cc1ccc(OC)c(Cl)c1)c(=O)n2[C@H]1CC[C@H](O)CC1 [Example 2(98), 1-(3-Chloro-4-methoxybenzyl)-3-(trans-4-hydroxycyclohexyl)-6-methoxycarbonyl-2,3-dihydro-1H-imidazo[4,5-b]pyridin-2-one]
156 to 157	COc1ccc(Cn2c(=O)n(C3CCCC3)c3ncc(C(F)(F)F)cc32)cc1Cl [Example 2(17), 1-(3-Chloro-4-methoxybenzyl)-3-cyclopentyl-6-trifluoromethyl-2,3-dihydro-1H-imidazo[4,5-b]pyridin-2-one]
128 to 130	COc1ccc(Cn2c(=O)n([C@H]3CC[C@H](O)CC3)c3ncc(C(F)(F)F)cc32)cc1OC [Example 18, 1-(3,4-dimethoxybenzyl)-3-(trans-4-hydroxycyclohexyl)-6-trifluoromethyl-2,3-dihydro-1H-imidazo[4,5-b]pyridin-2-one]
197 to 198	COc1ccc(Cn2c(=O)n([C@H]3CC[C@@H](O)CC3)c3ncc(C#N)cc32)cc1Cl [Example 24, 1-(3-chloro-4-methoxybenzyl)-6-cyano-3-(cis-4-hydroxycyclohexyl)-2,3-dihydro-1H-imidazo[4,5-b]pyridin-2-one]
265 to 265.5	COc1ccc(Cn2c(=O)n([C@H]3CC[C@H](O)CC3)c3ccc(S(C)(=O)=O)cc32)cc1Cl [Example 4(3), 3-(3-Chloro-4-methoxybenzyl)-1-(trans-4-hydroxycyclohexyl)-5-methylsulfonyl-2,3-dihydro-1H-benzimidazol-2-one]
122 to 124	COc1ccc(Cn2c(=O)n([C@H]3CC[C@H](O)CC3)c3ccc([N+](=O)[O-])cc32)cc1C#N [Example 2(97), 3-(3-Cyano-4-methoxybenzyl)-1-(trans-4-hydroxycyclohexyl)-5-nitro-2,3-dihydro-1H-benzimidazol-2-one]
142 to 142.5	COc1ccc(Cn2c(=O)n([C@H]3CC[C@H](O)CC3)c3ccc([N+](=O)[O-])cc32)cc1Cl [Example 2(16), 3-(3-Chloro-4-methoxybenzyl)-1-(trans-4-hydroxycyclohexyl)-5-nitro-2,3-dihydro-1H-benzimidazol-2-one]
164 to 165	COc1ccc(Cn2c(=O)n([C@H](C)CO)c3ncc(C#N)cc32)cc1Cl [Example 4(8), 1-(3-Chloro-4-methoxybenzyl)-6-cyano-3-((R)-2-hydroxy-1-methylethyl)-2,3-dihydro-1H-imidazo[4,5-b]pyridin-2-one]
